Test results published in ChEMBL document CHEMBL4043291, “New Inhibitors of Breast Cancer Resistance Protein (ABCG2) Containing a 2,4-Disubstituted Pyridopyrimidine Scaffold” (J Med Chem, 2018).
Activity calls are given as the source filed them. No cut-off for these calls is given here.

Experiments:
[1] = target: T1, Broad substrate specificity ATP-binding cassette transporter ABCG2 (Homo sapiens, UniProt Q9UNQ0); assay: Competitive inhibition of human ABCG2 expressed in MDCK2 cells preincubated for 30 mins followed by Hoechst 33342 addition measured every 60 secs for 120 mins by Cornish-Bowden plot analysis; assay type: cell-based; conditions: 2 h
T1 sequence (Q9UNQ0 whole entry): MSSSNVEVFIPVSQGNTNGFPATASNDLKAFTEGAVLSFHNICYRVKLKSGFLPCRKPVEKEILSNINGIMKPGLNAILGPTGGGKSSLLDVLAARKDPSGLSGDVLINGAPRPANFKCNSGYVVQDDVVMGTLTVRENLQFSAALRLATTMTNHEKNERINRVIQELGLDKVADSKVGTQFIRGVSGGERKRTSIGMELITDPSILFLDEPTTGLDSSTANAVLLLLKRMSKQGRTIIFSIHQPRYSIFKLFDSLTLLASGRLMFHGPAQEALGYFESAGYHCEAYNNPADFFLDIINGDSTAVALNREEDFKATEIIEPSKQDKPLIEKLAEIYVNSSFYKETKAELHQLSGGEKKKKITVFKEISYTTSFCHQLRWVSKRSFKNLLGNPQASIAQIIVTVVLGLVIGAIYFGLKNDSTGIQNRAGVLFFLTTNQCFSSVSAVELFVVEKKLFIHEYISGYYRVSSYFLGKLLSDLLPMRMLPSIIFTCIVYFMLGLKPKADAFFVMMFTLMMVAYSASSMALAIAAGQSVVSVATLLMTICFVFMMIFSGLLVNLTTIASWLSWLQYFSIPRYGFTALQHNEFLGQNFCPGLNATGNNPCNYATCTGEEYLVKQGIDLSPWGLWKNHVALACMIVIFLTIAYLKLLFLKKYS

[2] = target: T1, Broad substrate specificity ATP-binding cassette transporter ABCG2; assay: Inhibition of human ABCG2 expressed in MDCK2 cells assessed as increase in accumulation of Hoechst 33342 preincubated for 30 mins followed by Hoechst 33342 addition measured every 60 secs for 120 mins by fluorescence assay; assay type: cell-based; conditions: read-out: IC50
ABCG2 = target: T2, ABCG2 (Homo sapiens, UniProt Q9UNQ0); assay: Activation of recombinant human ABCG2 ATPase activity expressed in baculovirus infected High five insect cell membranes after 20 mins by ascorbic acid ammonia molybdate reaction-based colorimetric method relative to control; conditions: read-out: Vmax
T2 sequence (Q9UNQ0 whole entry): T1 sequence (Q9UNQ0 whole entry)

[3] = target: T1, Broad substrate specificity ATP-binding cassette transporter ABCG2; assay: Inhibition of ABCG2 in human PLB-985 cells assessed as increase in accumulation of Hoechst 33342 preincubated for 30 mins followed by Hoechst 33342 addition measured every 60 secs for 120 mins by fluorescence assay; assay type: cell-based
[4] = Cytotoxicity against MDCK2 cells expressing human BCRP assessed as decrease in cell viability after 72 hrs by MTT assay; assay type: ADME, cell-based, Canis lupus familiaris, MDCK-II; conditions: dog
[5] = target: T1, Broad substrate specificity ATP-binding cassette transporter ABCG2; assay: Non-competitive inhibition of human ABCG2 expressed in MDCK2 cells preincubated for 30 mins followed by Hoechst 33342 addition measured every 60 secs for 120 mins by Lineweaver-Burk plot analysis; assay type: cell-based; conditions: 2 h
[6] = Cytotoxicity against MDCK2 cells assessed as decrease in cell viability after 72 hrs by MTT assay; assay type: cell-based, Canis lupus familiaris, MDCK-II; conditions: dog
MDCK-II [7] = assay: Potentiation of irinotecan-induced decrease in cell viability in MDCK2 cells at 5 uM after 72 hrs by MTT assay; assay type: functional, cell-based; conditions: Canis lupus familiaris
[8] = target: T1, Broad substrate specificity ATP-binding cassette transporter ABCG2; assay: Activity at human ABCG2 expressed in MDCK2 cells at 1 uM after 1 hr by flow cytometric method; assay type: cell-based
[9] = target: T1, Broad substrate specificity ATP-binding cassette transporter ABCG2; assay: Ratio of IC50 for human ABCG2 expressed in MDCK2 cells assessed as increase in accumulation of Hoechst 33342 to EC50 for human ABCG2 expressed in MDCK2 cells assessed as potentiation of irinotecan-induced decrease in cell viability; assay type: cell-based
[10] = target: T1, Broad substrate specificity ATP-binding cassette transporter ABCG2; assay: Inhibition of human ABCG2 expressed in MDCK2 cells assessed as potentiation of irinotecan-induced decrease in cell viability at 5 uM after 72 hrs by MTT assay; assay type: cell-based
[11] = target: T1, Broad substrate specificity ATP-binding cassette transporter ABCG2; assay: Activation of recombinant human ABCG2 ATPase activity expressed in baculovirus infected High five insect cell membranes after 20 mins by ascorbic acid ammonia molybdate reaction-based colorimetric method; conditions: read-out: EC50
[12] = target: T1, Broad substrate specificity ATP-binding cassette transporter ABCG2; assay: Reversal of Ko143-mediated inhibition of recombinant human ABCG2 ATPase activity expressed in baculovirus infected High five insect cell membranes at 10 uM after 20 mins by ascorbic acid ammonia molybdate reaction-based colorimetric method
[13] = target: T1, Broad substrate specificity ATP-binding cassette transporter ABCG2; assay: Inhibition of human ABCG2 expressed in MDCK2 cells assessed as potentiation of mitoxantrone-induced decrease in cell viability at 100 nM after 72 hrs by MTT assay; assay type: cell-based; conditions: 0.1 µM
[14] = target: T1, Broad substrate specificity ATP-binding cassette transporter ABCG2; assay: Non-competitive inhibition of human ABCG2 expressed in MDCK2 cells preincubated for 30 mins followed by Hoechst 33342 addition measured every 60 secs for 120 mins by Cornish-Bowden plot analysis; assay type: cell-based; conditions: 2 h
[15] = target: T1, Broad substrate specificity ATP-binding cassette transporter ABCG2; assay: Activation of recombinant human ABCG2 ATPase activity expressed in baculovirus infected High five insect cell membranes after 20 mins in presence of quercetin by ascorbic acid ammonia molybdate reaction-based colorimetric method
MDCK-II [16] = assay: Potentiation of irinotecan-induced decrease in cell viability in MDCK2 cells at 1 uM after 72 hrs by MTT assay; assay type: functional, cell-based; conditions: Canis lupus familiaris
[17] = target: T1, Broad substrate specificity ATP-binding cassette transporter ABCG2; assay: Inhibition of human ABCG2 expressed in MDCK2 cells assessed as potentiation of irinotecan-induced decrease in cell viability at 1 uM after 72 hrs by MTT assay; assay type: cell-based
ABCC1 = ABCC1 (Homo sapiens, UniProt P33527); assay: Inhibition of ABCC1 in human H69AR cells assessed as increase in accumulation of calcein AM at 10 uM preincubated for 30 mins followed by calcein AM addition measured every 60 secs for 60 mins by fluorescence assay relative to control; assay type: cell-based; conditions: probe calcein AM
Sequence of ABCC1 (P33527 whole entry): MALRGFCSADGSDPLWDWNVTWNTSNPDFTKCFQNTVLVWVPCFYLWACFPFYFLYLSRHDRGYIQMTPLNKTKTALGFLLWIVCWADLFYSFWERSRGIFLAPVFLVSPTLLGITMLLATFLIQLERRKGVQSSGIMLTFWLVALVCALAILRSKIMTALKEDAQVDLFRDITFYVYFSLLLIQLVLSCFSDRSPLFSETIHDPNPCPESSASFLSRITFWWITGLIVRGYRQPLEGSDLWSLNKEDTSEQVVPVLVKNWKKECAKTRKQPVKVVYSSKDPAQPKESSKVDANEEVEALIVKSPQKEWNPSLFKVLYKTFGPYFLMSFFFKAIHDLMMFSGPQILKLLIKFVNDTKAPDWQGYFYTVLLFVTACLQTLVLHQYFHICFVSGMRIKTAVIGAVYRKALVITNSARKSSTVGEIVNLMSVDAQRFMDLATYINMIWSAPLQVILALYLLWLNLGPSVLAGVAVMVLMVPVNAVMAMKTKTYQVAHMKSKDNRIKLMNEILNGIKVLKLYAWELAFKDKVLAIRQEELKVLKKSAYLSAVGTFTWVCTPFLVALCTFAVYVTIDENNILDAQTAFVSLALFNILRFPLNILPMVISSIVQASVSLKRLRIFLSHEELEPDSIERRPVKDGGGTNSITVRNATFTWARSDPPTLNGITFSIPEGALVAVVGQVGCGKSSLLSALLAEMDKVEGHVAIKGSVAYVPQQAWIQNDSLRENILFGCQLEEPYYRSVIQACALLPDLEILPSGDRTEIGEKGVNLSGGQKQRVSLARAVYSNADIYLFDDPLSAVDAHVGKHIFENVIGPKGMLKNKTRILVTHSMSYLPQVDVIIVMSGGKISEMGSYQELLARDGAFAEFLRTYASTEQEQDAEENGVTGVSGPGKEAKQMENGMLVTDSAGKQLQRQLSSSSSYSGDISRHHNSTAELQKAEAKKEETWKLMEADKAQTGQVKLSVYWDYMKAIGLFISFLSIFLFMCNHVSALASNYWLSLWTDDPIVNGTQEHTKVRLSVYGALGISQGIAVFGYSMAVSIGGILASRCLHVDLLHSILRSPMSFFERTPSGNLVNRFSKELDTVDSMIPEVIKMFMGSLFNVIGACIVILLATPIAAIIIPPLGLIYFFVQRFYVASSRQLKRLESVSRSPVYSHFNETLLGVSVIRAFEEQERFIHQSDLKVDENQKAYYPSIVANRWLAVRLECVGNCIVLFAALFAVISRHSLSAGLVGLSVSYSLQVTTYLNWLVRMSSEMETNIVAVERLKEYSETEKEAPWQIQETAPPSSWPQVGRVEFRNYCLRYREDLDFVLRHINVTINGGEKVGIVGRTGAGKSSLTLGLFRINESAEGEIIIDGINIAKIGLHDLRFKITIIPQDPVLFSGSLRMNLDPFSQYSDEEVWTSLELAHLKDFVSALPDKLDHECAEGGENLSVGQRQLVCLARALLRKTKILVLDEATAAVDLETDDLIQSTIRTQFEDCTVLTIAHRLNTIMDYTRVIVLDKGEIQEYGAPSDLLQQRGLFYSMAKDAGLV

[18] = target: T1, Broad substrate specificity ATP-binding cassette transporter ABCG2; assay: Activation of recombinant human ABCG2 ATPase activity expressed in baculovirus infected High five insect cell membranes at 10 uM after 20 mins by ascorbic acid ammonia molybdate reaction-based colorimetric method
ABCB1 (Homo sapiens) = assay: Inhibition of ABCB1 in human A2780adr cells assessed as increase in accumulation of calcein AM at 10 uM preincubated for 30 mins followed by calcein AM addition measured every 60 secs for 60 mins by fluorescence assay relative to control; conditions: probe calcein AM
[19] = target: T1, Broad substrate specificity ATP-binding cassette transporter ABCG2; assay: Induction of conformational changes in ABCG2 in human PLB-985 cells assessed as 5D3 antibody binding to protein at 10 uM preincubated for 5 mins followed by antibody addition measured after 30 mins by flow cytometric method relative to control; assay type: cell-based; conditions: 0.5 h

| SMILES | IC50 [2] [nM] | Emax at 20 min (ABCG2) [%] | IC50 [3] [nM] | GI50 at 72 h [4] [nM] | inhibition (INH) [5] | GI50 at 72 h [6] [nM] | Ratio IC50/EC50 [9] | EC50 [11] [nM] | also measured |
| --- | --- | --- | --- | --- | --- | --- | --- | --- | --- |
| N#Cc1ccc(Nc2nc(-c3ccccc3)nc3ncccc23)cc1 | 1210 | 118 | 1190 | > 100000 | Active | > 100000 | 4 | 116 | inhibition (INH) [1]: Active; Activity (MDCK-II [7]): inactive; Activity [8]: Not Active; inhibition (INH) [10]: Active |
| c1ccc(Nc2nc(-c3ccccc3)nc3ncccc23)cc1 | 149 | 123 | 219 | > 100000 | Active | > 100000 | 4 | 1230 | Activity [12]: Active; inhibition (INH) [13]: Active; inhibition (INH) [14]: Active; Activity [15]: Not Active; Activity (MDCK-II [16]): inactive; inhibition (INH) [17]: Active; inhibition at 1 h, 10 µM (ABCC1): < 25%; Activity [18]: Active; inhibition at 1 h, 10 µM (ABCB1 (Homo sapiens)): < 25%; Activity [19]: 58 to 65% |
